Reference: patent US10988786B2, “Mutant 4-hydroxyphenylacetate 3-hydroxylases and uses thereof” (SYMRISE AG, priority 2015, dated 2021)

Experiments:
4HPA3H = target: T1, 4HPA3H (Escherichia coli, UniProt Q57160); assay: Whole-cell hydroxylation, cells expressing wild-type 4HPA3H; type: cell-based, E. coli; details: BL21(DE3) cells expressing wild-type 4HPA3H
T1 construct: expressed in transfected cells; host or cells: E. coli BL21(DE3)
Procedure: (§5) Substrates (200 μM) as shown in FIG. 1 were added to suspensions of bacterial cells expressing 4HPA3H or its single (A) and double variants (B). After incubation for 16 hours, catechols and residual substrates were extracted and analyzed by HPLC
(§6) Suspensions of the cells were tested for hydroxylation of a panel of eight phenolic compounds (FIG. 1) which belong to different classes of natural products: we included (I) phenolic acids and ketones such as p-coumaric acid (1), ferulic acid (3), rheosmin (15) and p-hydroxybenzoic acid (9), (II) polycyclic compounds such as the hydroxycoumarin umbelliferone (13), the stilbene resveratrol (5) and the flavonoid naringenin (7). […] 4HPA3H was also tested for conversion of 4-methoxycinnamic acid and 4-aminocinnamic acid.

wild-type 4HPA3H = target: T2, wild-type 4HPA3H (Escherichia coli, UniProt Q57160); assay: In vitro hydroxylation by the 4HPA3H/PrnF/FDH system, wild-type 4HPA3H; type: biochemical, E. coli; details: substrate 1 mM, purified wild-type 4HPA3H, optimized conditions
T2 construct: made in house; host or cells: E. coli BL21(DE3)
Procedure: (§1) Purified 4HPA3H (A) or variants (B) (Y301I depicted in white and Y301F/S462A depicted in black) were used for conversion of substrates (1 mM) under optimized conditions. The numbers correspond to substrates as explained in the legend for FIG. 1 above.
(§2) In order to develop an effective and low-cost enzyme system for in vitro hydroxylation, several parameters of the 4HPA3H reaction with respect to maximum reaction rate were optimized. By means of a spectrophotometric assay (Example 4 above), the inventors screened different buffer systems and optimized the concentration of the components p-coumaric acid (1 cf. FIG. 1), FAD, NADH and methanol, the incubation temperature and oxygen transfer (i.e. by variation of the shaking frequency) (optimum conditions are given in the Experimental Section). […] In contrast to the cofactors, the accompanying cofactor recycling redox enzymes PrnF and FDH were used in excess due to their high specific activity.
In accordance with the whole-cell transformation experiments (FIG. 3), product yields in the conversion by the wild-type 4HPA3H (FIG. 8A) ranged from high (1, 13, 15 cf. FIG. 1) or moderate (5 cf. FIG. 1) to low (9, 11 cf. FIG. 1), whereas ferulic acid 3 was not oxidized. […] However, in contrast to the experiments with life biocatalysts […] conversion of naringenin (7 cf. FIG. 1) by the wild-type 4HPA3H (25% yield) was observed (which might be explained by increased substrate availability). The hydroxycarbazole (11) was not accepted by the double variant Y301F/S462A, probably because of the high substrate concentration which seems to reflect strong […] inhibition—an effect which has previously been observed for other 4HPA3H enzymes. Noteworthy, HPLC analysis of the reaction products confirmed product specificity.

[1] = target: T3, 4HPA3H-Y301F/S462A (SEQ ID NO:175) (Escherichia coli, UniProt Q57160, S462A/Y301F); assay: Solid phase-based cascade (Talon column), hydroxylation of naringenin to eriodictyol; type: biochemical, E. coli
T3 construct: made in house; host or cells: E. coli BL21(DE3)
Procedure: Stock solutions of […] and eriodictyol (10 mM each) in methanol were produced (for the structure of the compounds, see FIG. 9). They were diluted using acetonitrile for obtaining the desired concentrations (70, 110, 140, 210 and 280 μM). 10 μl of each sample was injected in to a HPLC machine and calibration curves were produced for both substances (data not shown).
First the catalysis was performed using 9 mU oxidase 4HPA3H in a 10 ml reaction comprising 1 ml 1M Tris/HCl, pH 7.5; 25 μl of a 10 mM NADH solution, 20 μl of a 5 mM FAD solution and 1 ml formate solution using 9 mU 4HPA3H-Y301F/S462A (SEQ ID NO:175) and 0.57 mU PrnF-reductase (SEQ ID NO:176) and 640 mU FDH (SEQ ID NO:177). Subsequently the enzymes were mixes, 100 μl 1M Tris/HCl solution, pH 7.5, was added and ddH2O (deionized, reverse osmosis) was added ad 2 ml. The enzyme solution was at least 5 times passed through a 1 ml Talon column with a flow rate of 0.1 ml/min^−1 to let the proteins bind to the column in a homogenous way. The evaluation of the complete binding of the proteins to the column material was measured via Bradford assay. Then, the column was washed once with 50 mM Tris/HCl, pH 7.5 (=basis buffer), and connected to a peristaltic pump.
The constituents of each reaction mixture were transferred to a suitable sterile flask, which was then connected to a peristaltic pump. During reaction, the reaction mixture was slightly stirred with the help of a magnetic stirrer. Using a flow rate of 1 ml/min, the system was washed with the basis buffer for 2 min and a control sample was taken. Only then, the substrate was added, here 200 μM naringenin (from a 10 mM stock solution in methanol). The substrate was pumped over the Talon column having the enzymes bound thereto with a flow rate of 1 ml/min at maximum. During the time range from 0-1310 min, the sample extraction was performed in samples of 35 μl each. Said samples were mixed with an equal volume of acetonitrile and were immediately injected into a HPLC device (20 μl each). The evaluation was conducted with the help of a calibration curve done at the beginning of the experiment and thereby measuring and calculating the peak areas (see FIG. 10).
The same assay was performed using 35 mU hydroxylase/1 ml column volume and the concentration of the co-enzymes for regeneration of the cofactor was increased equivalently.

[2] = Whole-cell hydroxylation, variants compared with wild-type on well-accepted substrates; details: whole cells
Procedure: as §5, §6

[3] = In vitro catechol complex formation assay (4HPA3H/PrnF/FDH), p-coumaric acid; type: biochemical; details: purified enzyme, optimized conditions, PrnF and FDH
Procedure: (A) Standard curve for the determination of caffeic acid (2 cf. FIG. 1). Mixtures of caffeic acid and p-coumaric acid (1) were incubated with FeCl3 and analyzed at 595 nm as described in the Experimental Section. (B) Time course of the oxidation of p-coumaric acid (1 cf. FIG. 1) by wild-type 4HPA3H. The enzymatic reaction was performed under optimized conditions, and produced caffeic acid (2 cf. FIG. 1) was detected as Fe^3+ complex. Data are the means±standard deviations obtained from three measurements.
(§3) For assaying 4HPA3H in microplate scale, 4HPA3H was incubated with PrnF, the substrate p-coumaric acid (1 cf. FIG. 1) and the formate dehydrogenase (FDH) from Candida boidinii. Similar as reported in our previous publication, this enzyme was introduced for regeneration of the costly cofactor NADH: NAD^+ formed during the reaction is recycled with sodium formate, yielding a sequential three-enzyme cascade for hydride transfer (FIG. 2). The conversion of p-coumaric acid (1 cf. FIG. 1) was measured spectrophotometrically by a previously established catechol complexation method (M. Dippe, B. Weigel, R. Heinke, T. Vogt, L. A. Wessjohann, 2014), which could be applied for quantitative determination of the product caffeic acid (see FIG. 6). […] However, similar to the data obtained from whole-cell biotransformations (see Example 2), these variants were beneficial in the conversion of ferulic acid (3 cf. FIG. 1), which is also reflected by comparably high conversion rates (4HPA3H-Y301F/S462A: 1.06±0.31 nmol min^−1 mg^−1, 4HPA3H-Y301I: 4.49±0.20 nmol min^−1 mg^−1).
(§4) In order to develop an effective and low-cost enzyme system for in vitro hydroxylation, several parameters of the 4HPA3H reaction with respect to maximum reaction rate were optimized. […]

[4] = In vitro hydroxylation, mutant enzymes on challenging substrates 3 and 7; type: biochemical; details: substrate 1 mM, purified enzymes
Procedure: as §1, §2
In accordance with the whole-cell transformation experiments (FIG. 3), product yields in the conversion by the wild-type 4HPA3H (FIG. 8A) ranged from high (1, 13, 15 cf. FIG. 1) or moderate (5 cf. FIG. 1) to low (9, 11 cf. FIG. 1), whereas ferulic acid 3 was not oxidized. […]

[5] = In vitro assay (4HPA3H/PrnF/FDH), conversion of ferulic acid; type: biochemical; details: purified enzyme, PrnF and FDH
Procedure: as §3, §4

Molecule | acceptance as substrate (4HPA3H) | product yield (wild-type 4HPA3H) | further results
Nc1ccc(C=CC(=O)O)cc1 [4-aminocinnamic acid] | no substrates | – | –
COc1ccc(C=CC(=O)O)cc1 [4-methoxycinnamic acid] | no substrates | – | –
O=C(O)/C=C/c1ccc(O)cc1 [Compound 1, p-coumaric acid] | high efficiency | high | –
COc1cc(/C=C/C(=O)O)ccc1O [Compound 3, ferulic acid] | not accepted | not oxidized | –
Oc1ccc(C=Cc2cc(O)cc(O)c2)cc1 [Compound 5, resveratrol] | – | moderate | –
O=C1C[C@@H](c2ccc(O)c(O)c2)Oc2cc(O)cc(O)c21 [Compound 8, eriodictyol] | – | – | biocatalytic formation of eriodictyol ([1]; 9 mU enzyme/1 ml column, 200 μM naringenin, after 1290 min): 42.4 µM; eriodictyol yielded ([1]; 35 mU hydroxylase/1 ml column volume, after 240 min): 67.7 µM
O=C(O)c1ccc(O)cc1 [Compound 9, p-hydroxybenzoic acid] | – | low | –
O=c1ccc2ccc(O)cc2o1 [Compound 13, umbelliferone] | – | high | –
CC(=O)CCc1ccc(O)cc1 [Compound 15, rheosmin] | – | high | conversion / yield of catechol product (4HPA3H; substrate 200 μM, 16 hours, HPLC): 100%
S462A: 4HPA3H single variant S462A (protein, listed as Escherichia coli, 4HPA3H HpaB S462A) MKPEDFRASTQRPFTGEEYLKSLQDGREIYIYGERVKDVTTHPAFRNAAASVAQLYDALHKPEMQDSLCWNTDTGSGGYTHKFFRVAKSADDLRQQRDAIAEWSRLSYGWMGRTPDYKAAFGCALGANPGFYGQFEQNARNWYTRIQETGLYFNHAIVNPPIDRHLPTDKVKDVYIKLEKETDAGIIVSGAKVVATNSALTHYNMIGFGSAQVMGENPDFALMFVAPMDADGVKLISRASYEMVAGATGSPYDYPLSSRFDENDAILVMDNVLIPWENVLIYRDFDRCRRWTMEGGFARMYPLQACVRLAVKLDFITALLKKSLECTGTLEFRGVQADLGEVVAWRNTFWALSDSMCSEATPWVNGAYLPDHAALQTYRVLAPMAYAKIKNIIERNVTSGLIYLPSSARDLNNPQIDQYLAKYVRGSNGMDHVQRIKILKLMWDAIGSEFGGRHELYEINYAGSQDEIRLQCLRQAQNSGNMDKMMAMVDRCLSEYDQDGWTVPHLHNNDDINMLDKLLK | – | – | activity towards substrates 1, 13, 15 compared with wild-type enzyme [2]: comparably active
M293P: 4HPA3H single variant M293P (protein, listed as Escherichia coli, 4HPA3H HpaB M293P) MKPEDFRASTQRPFTGEEYLKSLQDGREIYIYGERVKDVTTHPAFRNAAASVAQLYDALHKPEMQDSLCWNTDTGSGGYTHKFFRVAKSADDLRQQRDAIAEWSRLSYGWMGRTPDYKAAFGCALGANPGFYGQFEQNARNWYTRIQETGLYFNHAIVNPPIDRHLPTDKVKDVYIKLEKETDAGIIVSGAKVVATNSALTHYNMIGFGSAQVMGENPDFALMFVAPMDADGVKLISRASYEMVAGATGSPYDYPLSSRFDENDAILVMDNVLIPWENVLIYRDFDRCRRWTPEGGFARMYPLQACVRLAVKLDFITALLKKSLECTGTLEFRGVQADLGEVVAWRNTFWALSDSMCSEATPWVNGAYLPDHAALQTYRVLAPMAYAKIKNIIERNVTSGLIYLPSSARDLNNPQIDQYLAKYVRGSNGMDHVQRIKILKLMWDAIGSEFGGRHELYEINYSGSQDEIRLQCLRQAQNSGNMDKMMAMVDRCLSEYDQDGWTVPHLHNNDDINMLDKLLK | – | – | activity towards substrates 1, 13, 15 compared with wild-type enzyme [2]: reduced activity
4HPA3H: wild-type 4-hydroxyphenylacetate 3-hydroxylase from E. coli, SEQ ID NO:98 (protein, listed as Escherichia coli, 4HPA3H HpaB wt) MKPEDFRASTQRPFTGEEYLKSLQDGREIYIYGERVKDVTTHPAFRNAAASVAQLYDALHKPEMQDSLCWNTDTGSGGYTHKFFRVAKSADDLRQQRDAIAEWSRLSYGWMGRTPDYKAAFGCALGANPGFYGQFEQNARNWYTRIQETGLYFNHAIVNPPIDRHLPTDKVKDVYIKLEKETDAGIIVSGAKVVATNSALTHYNMIGFGSAQVMGENPDFALMFVAPMDADGVKLISRASYEMVAGATGSPYDYPLSSRFDENDAILVMDNVLIPWENVLIYRDFDRCRRWTMEGGFARMYPLQACVRLAVKLDFITALLKKSLECTGTLEFRGVQADLGEVVAWRNTFWALSDSMCSEATPWVNGAYLPDHAALQTYRVLAPMAYAKIKNIIERNVTSGLIYLPSSARDLNNPQIDQYLAKYVRGSNGMDHVQRIKILKLMWDAIGSEFGGRHELYEINYSGSQDEIRLQCLRQAQNSGNMDKMMAMVDRCLSEYDQDGWTVPHLHNNDDINMLDKLLK | – | – | specific activity towards p-coumaric acid (1) [3]: 6.2 ± 0.5 nmol/min/mg
4HPA3H-Y301F/S462A: 4HPA3H double variant, SEQ ID NO:175 (protein, listed as Escherichia coli, 4HPA3H HpaB Y301F/S462A) MKPEDFRASTQRPFTGEEYLKSLQDGREIYIYGERVKDVTTHPAFRNAAASVAQLYDALHKPEMQDSLCWNTDTGSGGYTHKFFRVAKSADDLRQQRDAIAEWSRLSYGWMGRTPDYKAAFGCALGANPGFYGQFEQNARNWYTRIQETGLYFNHAIVNPPIDRHLPTDKVKDVYIKLEKETDAGIIVSGAKVVATNSALTHYNMIGFGSAQVMGENPDFALMFVAPMDADGVKLISRASYEMVAGATGSPYDYPLSSRFDENDAILVMDNVLIPWENVLIYRDFDRCRRWTMEGGFARMFPLQACVRLAVKLDFITALLKKSLECTGTLEFRGVQADLGEVVAWRNTFWALSDSMCSEATPWVNGAYLPDHAALQTYRVLAPMAYAKIKNIIERNVTSGLIYLPSSARDLNNPQIDQYLAKYVRGSNGMDHVQRIKILKLMWDAIGSEFGGRHELYEINYAGSQDEIRLQCLRQAQNSGNMDKMMAMVDRCLSEYDQDGWTVPHLHNNDDINMLDKLLK | – | – | transformation of the challenging substrates 3 and 7 [4]: optimal; conversion rate of ferulic acid (3) [5]: 1.06 ± 0.31 nmol/min/mg; specific activity towards p-coumaric acid (1) [3]: 1.6 ± 0.3 nmol/min/mg
